In US6656690B2, “Mass spectrometric methods for biomolecular screening” (priority 1998, dated 2003):
“Also recorded” adds a separate entry of the source.

System: 27-mer RNA/DNA chimeric corresponding to the 16S rRNA A site
Test: ESI-MS and CID/CAD MS-MS protection assay on chimeric 27-mer RNA/DNA (ion trap)
Format: binding, prokaryotic
Procedure: In order to study the structure of the 27-mer RNA corresponding to the 16S rRNA A site, of sequence 5′-GGC-GUC-ACA-CCU-UCG-GGU-GAA-GUC-GCC-3′ (SEQ ID NO:1) a chimeric RNA/DNA molecule that incorporates three deoxyadenosine (dA) residues at positions 7, 20 and 21 was prepared using standard nucleic acid synthesis protocols on an automated synthesizer. This chimeric nucleic acid of sequence 5′-GGC-GUC-dACA-CCU-UCG-GGU-GdAdA-GUC-GCC-3′ (SEQ ID NO:2) was injected as a solution in water into an electrospray mass spectrometer. […] These fragments correspond to the w7^(2−), w8^(2−) and the a7-B^(2−) fragments respectively, that are formed by cleavage of the chimeric nucleic acid adjacent to each of the incorporated dA residues. […]
Next, another sample of the chimeric nucleic acid was treated with a solution of paromomycin and the resulting mixture analyzed by ESI followed by CID using a mass spectrometer. […]
1 mL (0.6 O.D.) of a solution of a 27-mer RNA containing 3 dA residues (from Example 1) was diluted into 500 μL of 1:1 isopropanol:water and adjusted to provide a solution that was 150 mM in ammonium acetate, pH 7.4 and wherein the RNA concentration was […]. […] This mixture was then subjected to ESI-MS and the ionization of the nucleic acid and its complex monitored in the mass spectrum. […]

## NC[C@@H]1O[C@H](O[C@H]2[C@@H](O)[C@H](O[C@@H]3[C@@H](O)[C@H](N)C[C@H](N)[C@H]3O[C@H]3O[C@H](CO)[C@@H](O)[C@H](O)[C@H]3N)O[C@@H]2CO)[C@H](N)[C@@H](O)[C@@H]1O [paromomycin]
Same activation energy as free RNA
  fragmentation at dA sites of the complex under CID/CAD (protection of binding site): no fragmentation at the dA sites; also recorded: No cleavage was found to occur; also recorded: No significant fragment ions; also recorded: No fragment ions are detected
Target 10 mM as printed, paromomycin and library members ~150 nM
  complex formation / binding strength with chimeric 27-mer (in words): only a 1:1 complex
